Earlier results, collected in publication PMC3946937 (Pharmaceutical research, 2013).
Like-named read-outs stand apart in the source and are kept apart here.

Assays:
Mtb [1] = system: Mtb
Mtb [2] = conditions: read-out: Mtb Activity in vitro: IC90
Mtb [3] = system: Mtb; remark: listed apart in the source

O=C(Nc1ccc(F)c(F)c1F)NC1C2CC3CC(C2)CC1C3 (stereo not shown) [AU1235]
Mtb Activity in vitro: MIC (Mtb [1]): MIC 0.1μg/ml

CN1C(=O)[C@]23CC4=CC=C[C@H](O)[C@H]4N2C(=O)[C@@]1(CO)SS3 [Gliotoxin]
IC90 (Mtb [2]): 140 nM

CCCCC1C(=O)N(c2ccccc2)N(c2ccc(O)cc2)C1=O (stereo not shown) [Oxyphenbutazone]
Mtb Activity in vitro: MIC (Mtb [3]): MIC 10μg/ml
Notes: activity in words (Mtb [3]; non-replicating TB): Active against non-replicating TB Metabolite active against replicating TB-screened ~5600 compounds
